Test results as given in ChEMBL document CHEMBL1201862, “PubChem BioAssay data set” (2004).
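Interpolation was linear, between the two tested concentrations surrounding the appropriate level; five concentrations were tested over 48 hours in 96-well plates. At the GI50, growth is halved.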 Calls of active or inactive are those of the source. No stated cut-off is given here; in the data, active = GI50 up to about 1.1 µM and inactive = higher.

How the values were obtained:
Experiment in all cases: growth of human tumour cells (NCI), 48 h
A549 = tested on: A549
MDA-MB-435 = tested on: MDA-MB-435
CCRF-CEM = tested on: CCRF-CEM
NCI/ADR-RES = tested on: NCI/ADR-RES
SK-MEL-2 = tested on: SK-MEL-2
ACHN = tested on: ACHN
OVCAR-5 = tested on: OVCAR-5
PC-3 = tested on: PC-3
KM12 = tested on: KM12
OVCAR-3 = tested on: OVCAR-3
Hs-578T = tested on: Hs-578T
SN12C = tested on: SN12C
EKVX = tested on: EKVX
T47D = tested on: T47D
U-251 = tested on: U-251
A498 = tested on: A498
SW-620 = tested on: SW-620
HL-60 = tested on: HL-60
HCC 2998 = tested on: HCC 2998
MOLT-4 = tested on: MOLT-4

Measured: GI50

FC(F)(F)c1nc2ccc(SSc3ccc4nc(C(F)(F)F)[nH]c4c3)cc2[nH]1
inactive: A549 42.3 µM | MDA-MB-435 40.6 µM | CCRF-CEM > 10 µM | NCI/ADR-RES > 10 µM | SK-MEL-2 > 10 µM | ACHN 88.7 µM | OVCAR-5 > 100 µM | PC-3 36.6 µM | KM12 > 10 µM | OVCAR-3 36.6 µM | Hs-578T > 10 µM | SN12C 46.7 µM | EKVX > 10 µM | T47D 38.8 µM | U-251 84.1 µM | A498 > 10 µM | SW-620 61.1 µM | HL-60 48.8 µM | HCC 2998 38.3 µM | MOLT-4 27.3 µM

CC(C)(C)c1cc(OCc2nn3c(Cc4ccccc4)nnc3s2)c(Cl)cc1OCc1nn2c(Cc3ccccc3)nnc2s1
inactive: A549 29.7 µM | MDA-MB-435 26.4 µM | CCRF-CEM 6.67 µM | NCI/ADR-RES 39.3 µM | SK-MEL-2 30.8 µM | ACHN 14.4 µM | OVCAR-5 60.8 µM | PC-3 20.1 µM | KM12 26.9 µM | OVCAR-3 15.6 µM | Hs-578T > 100 µM | SN12C 34.8 µM | EKVX 12.9 µM | T47D 3.43 µM | U-251 21.8 µM | A498 15 µM | SW-620 43.6 µM | HL-60 23.9 µM | HCC 2998 53.6 µM | MOLT-4 8.93 µM

COc1cc([C@H]2c3cc(O)c(OC)cc3C[C@]3(O)[C@@H]2CO[C@@H]3O)ccc1O
inactive: A549 > 100 µM | MDA-MB-435 > 100 µM | CCRF-CEM > 100 µM | NCI/ADR-RES > 100 µM | SK-MEL-2 > 100 µM | ACHN > 100 µM | OVCAR-5 > 100 µM | PC-3 > 100 µM | KM12 > 100 µM | OVCAR-3 > 100 µM | Hs-578T > 100 µM | SN12C > 100 µM | EKVX > 100 µM | T47D > 100 µM | U-251 > 100 µM | A498 > 100 µM | SW-620 > 100 µM | HL-60 > 100 µM | HCC 2998 > 100 µM | MOLT-4 > 100 µM

O=C1NCCN1/N=C/c1c(Cl)n(-c2ccccc2)c2ccccc12
inactive: A549 23.9 µM | MDA-MB-435 12.4 µM | CCRF-CEM 29 µM | NCI/ADR-RES 19.5 µM | SK-MEL-2 25 µM | ACHN 23.9 µM | OVCAR-5 44.1 µM | PC-3 29 µM | KM12 15.7 µM | OVCAR-3 66.4 µM | Hs-578T 13.4 µM | SN12C 18.7 µM | EKVX 25.5 µM | T47D 15.2 µM | U-251 21.7 µM | A498 17.5 µM | SW-620 21.1 µM | HL-60 27.4 µM | HCC 2998 17.8 µM | MOLT-4 36.9 µM

CCCN1C(=O)/C(=C\c2ccc(OC)c(OC)c2)S/C1=N\c1ccccc1
inactive: A549 > 100 µM | MDA-MB-435 > 100 µM | CCRF-CEM > 100 µM | NCI/ADR-RES > 100 µM | SK-MEL-2 52.8 µM | ACHN > 100 µM | OVCAR-5 > 100 µM | PC-3 > 100 µM | KM12 > 100 µM | OVCAR-3 > 100 µM | Hs-578T 44.4 µM | SN12C > 100 µM | EKVX 67.9 µM | T47D > 100 µM | U-251 27.8 µM | A498 38.3 µM | SW-620 > 100 µM | HL-60 > 100 µM | HCC 2998 > 100 µM | MOLT-4 > 100 µM

C=C1CC[C@@]2(OC1)OC1C[C@H]3[C@@H]4CC=C5C[C@@H](O)CC(OC6OCC(OC(=O)[C@@H](O)[C@@H](C)CC)C(OC(C)=O)C6OC6OC(C)C(O)C(O)C6O)[C@]5(C)[C@H]4CC[C@]3(C)C1[C@@H]2C (some centres not stated)
inactive: A549 2.21 µM | MDA-MB-435 1.76 µM | CCRF-CEM 1.53 µM | NCI/ADR-RES 2.32 µM | SK-MEL-2 1.57 µM | ACHN 2.28 µM | OVCAR-5 2.04 µM | PC-3 1.67 µM | KM12 2.14 µM | OVCAR-3 1.85 µM | Hs-578T 3.4 µM | SN12C 2.25 µM | EKVX 2.34 µM | T47D 4.78 µM | U-251 1.75 µM | A498 1.81 µM | SW-620 2.1 µM | HL-60 1.81 µM | HCC 2998 1.6 µM | MOLT-4 1.7 µM

COc1ccc(N2C(=O)C3c4[nH]c5ccc(OCc6ccccc6)cc5c4C4CCC(c5ccccc5)CC4C3C2=O)cc1 (configuration not stated)
active: HL-60 0.34 µM
inactive: A549 9.64 µM | MDA-MB-435 3.22 µM | CCRF-CEM 4.2 µM | NCI/ADR-RES 18.8 µM | SK-MEL-2 23.1 µM | ACHN 7.21 µM | OVCAR-5 30.5 µM | PC-3 8.53 µM | KM12 27 µM | OVCAR-3 57.9 µM | Hs-578T 5.42 µM | SN12C 33.7 µM | EKVX 19.6 µM | T47D 7.73 µM | U-251 2.54 µM | A498 23.9 µM | SW-620 2.02 µM | HCC 2998 4.84 µM | MOLT-4 14.7 µM

O=C1Nc2ccccc2/C1=C/c1c(Cl)[nH]c2ccc(O)cc12
inactive: A549 4.54 µM | CCRF-CEM 1.4 µM | SK-MEL-2 1.55 µM | ACHN 4.7 µM | OVCAR-5 4.04 µM | PC-3 2.32 µM | KM12 1.37 µM | OVCAR-3 1.77 µM | Hs-578T 3.99 µM | EKVX 3.28 µM | T47D 3.02 µM | U-251 1.33 µM | A498 2.31 µM | SW-620 1.18 µM | HCC 2998 11.7 µM
active: MDA-MB-435 0.214 µM | NCI/ADR-RES 0.944 µM | SN12C 0.641 µM | HL-60 0.836 µM | MOLT-4 1 µM

CCCCCCCCOC(=O)C12Oc3ccc(-c4ccc5c(c4O)C(=O)C4=C(O)CC(C)C(O)C4(C(=O)OCCCCCCCC)O5)c(O)c3C(=O)C1=C(O)CC(C)C2O (configuration not stated)
inactive: A549 4.79 µM | MDA-MB-435 9.86 µM | CCRF-CEM 2.05 µM | NCI/ADR-RES 30.7 µM | SK-MEL-2 7.87 µM | ACHN 5.61 µM | OVCAR-5 24 µM | PC-3 23.2 µM | KM12 10.8 µM | OVCAR-3 24.2 µM | Hs-578T 11.6 µM | SN12C 27.7 µM | EKVX 28.5 µM | T47D 16.2 µM | U-251 4.06 µM | A498 23.5 µM | SW-620 6.85 µM | HL-60 2.92 µM | HCC 2998 28.9 µM | MOLT-4 16.3 µM

Nc1nc(CCl)nc(N2CCOCC2)n1
inactive: A549 > 100 µM | MDA-MB-435 29.2 µM | CCRF-CEM 18.6 µM | NCI/ADR-RES 29.4 µM | SK-MEL-2 > 100 µM | ACHN 16.6 µM | OVCAR-5 19.9 µM | PC-3 72.1 µM | KM12 32.1 µM | OVCAR-3 > 10 µM | Hs-578T 38.1 µM | SN12C 36.1 µM | EKVX 17.6 µM | T47D 55.3 µM | U-251 22.4 µM | A498 33 µM | SW-620 24.4 µM | HL-60 13.9 µM | HCC 2998 17.7 µM | MOLT-4 26.9 µM

CN(CCc1ccc(Cl)c(Cl)c1)[C@H]1CCCC[C@H]1N1CCCC1
inactive: A549 > 100 µM | MDA-MB-435 > 100 µM | NCI/ADR-RES > 100 µM | SK-MEL-2 > 100 µM | ACHN > 100 µM | OVCAR-5 > 100 µM | PC-3 > 100 µM | KM12 > 100 µM | OVCAR-3 > 100 µM | Hs-578T > 100 µM | SN12C > 100 µM | EKVX > 100 µM | T47D > 100 µM | U-251 > 100 µM | A498 > 100 µM | SW-620 > 100 µM | HL-60 > 100 µM | HCC 2998 > 100 µM | MOLT-4 > 100 µM

Oc1cc(-c2cccc(C(F)(F)F)c2)nc2cc3c(cc12)OCO3
inactive: A549 3.97 µM | SK-MEL-2 1.28 µM | ACHN 25.7 µM | OVCAR-5 1.49 µM | KM12 2.12 µM | Hs-578T 1.66 µM | SN12C 8.75 µM | EKVX 1.5 µM | T47D > 50 µM | U-251 2.55 µM | A498 8.87 µM | SW-620 2.21 µM | HCC 2998 3.44 µM | MOLT-4 2.82 µM
active: MDA-MB-435 0.935 µM | CCRF-CEM 0.277 µM | NCI/ADR-RES 1.04 µM | PC-3 0.365 µM | HL-60 0.246 µM

O=C(NCc1cccnc1)C(=O)NCc1cccnc1
active: MOLT-4 0.149 µM
inactive: A549 > 100 µM | MDA-MB-435 > 100 µM | NCI/ADR-RES > 100 µM | SK-MEL-2 > 100 µM | ACHN > 100 µM | OVCAR-5 > 100 µM | PC-3 > 100 µM | KM12 > 100 µM | OVCAR-3 > 100 µM | Hs-578T > 100 µM | SN12C > 100 µM | EKVX > 100 µM | T47D > 100 µM | U-251 > 100 µM | A498 > 100 µM | SW-620 > 100 µM | HL-60 27.4 µM | HCC 2998 > 100 µM
